Experiment: Observation of haloprogin / 2-octyl cyanoacrylate monomer composition after preparation
Assay type: physicochemical
Details: 30 mg haloprogin in 2 mL 2-octyl cyanoacrylate monomer
Procedure: A 2-octyl cyanoacrylate monomer composition is prepared by adding 30 mg of haloprogin, an anti-fungal agent, to 2 mL of 2-octyl cyanoacrylate monomer. The mixture is sealed in a glass vial and stirred. The characteristics of the composition are observed at about one minute after preparation and later at least twenty-four hours after preparation.

- premature polymerization of the monomer (sealed glass vial, about one minute and at least twenty-four hours after preparation): does not cause premature polymerization
- solubility in the monomer (observed at about one minute and at least twenty-four hours after preparation): soluble
SMILES: Clc1cc(Cl)c(OCC#CI)cc1Cl [haloprogin]

From patent publication US20030007948A1, “Adhesive treatment for skin yeast infections” (CLOSURE MEDICAL CORPORATION, priority 2001, published 2003)
